Test results taken from paper PMC3459904, “Inhibition of HIV-1 Infection by Human α-Defensin-5, a Natural Antimicrobial Peptide Expressed in the Genital and Intestinal Mucosae” (PLoS ONE, 2012).
Read-outs that look alike come from different tables or passages of the source. Where a SMILES comes first, the peptide text is derived from it. Bridges are numbered along the chain shown (N, C = ends).

Experiments:
[1] = tested on: primary isolate HIV-1J176 in purified CD4+ T lymphocytes
Description: Viral stocks were titrated on activated human CD4^+ T cells.
PBMCs were isolated from healthy blood donors by standard Ficoll-HyPaque (Pharmacia, Uppsala, Sweden) density gradient centrifugation from concentrated leukocytes of healthy blood donors and stimulated with 5 µg/ml PHA (Sigma, St. Louis, MO) in complete RPMI medium supplemented with 10% FBS and 50 U/ml recombinant IL-2 (Proleukin; Chiron Corporation, Emeryville, CA) (RPMI-10). After 3 days in culture, CD4^+ T cell population was enriched by negative immunomagnetic selection using Dynabeads M-450 (Invitrogen Carlsbad, CA) coated with monoclonal antibodies to CD8, CD14, CD19 and CD56 (Sigma, St. Louis, MO) according to the manufacturer’s protocol. Infection was carried out by spinoculation for 1.5 hours as previously described [32] with minor modifications. […]
The HIV-1 p24 Ag concentrations in the culture supernatants were determined by enzyme-linked immunosorbent assay (ELISA) at days 4 and 6 post-infection as previously described [68]. […] Bound p24 Ag was then detected using an alkaline phosphatase–conjugated anti-p24 monoclonal antibody (BC 1071-AP; Aalto Bio Reagents) and the AMPAK ELISA amplification system (DAKO A/S, Glostrup, Denmark).

[2] = tested on: HIV-1 envelope; details: envelope not stated
[3] = tested on: X4 HIV-1 envelopes; details: read-out: mean IC50, envelope-mediated fusion, PM1 effector cells, NIH-3T3 CD4/CXCR4 target cells, 2 h at 37°C, medium without FCS, β-galactosidase, 3 experiments
[4] = biological target: gp120/CD4 (Homo sapiens, UniProt P01730); experiment: biochemical
Description: (§1) Flat-bottom, 96-well MaxiSorp plates (NUNC, Roskilde, Denmark) were coated with recombinant sCD4 (5 µg/well) or HIV-1BaL gp120 (2 µg/well) in phosphate-buffered saline (PBS) for 18 hrs at 4°C. Bovine serum albumin (BSA) 3% was used for blocking the plates. Antibodies were added in 100 µl PBS+0.05%BSA and incubated for 1 hr at 37°C, after which the plate was washed and incubated for an additional hour at room temperature with the secondary antibody. Peroxidase-conjugated, affinity-purified goat-anti-mouse IgG or goat-anti-human IgG (Dako, Glostrup, Denmark) were used as secondary antibodies. […] The specific signal was calculated by subtracting background values obtained from replicate wells containing all the reagents except the specific ligand for each assay. Binding of mAbs 17b and 48d, directed to CD4-induced epitopes, was performed after preincubation of immobilized gp120 with sCD4 (2 µg/well) in PBS for 20 min at 37°C [65].

[5] = biological target: recombinant soluble CD4 (sCD4) (Homo sapiens, UniProt P01730); experiment: biochemical
Description: as §1

[6] = tested on: SHIV; details: macaques; ref [61]; cited from earlier work
Description: Moreover, HD5 may share the mechanism of action of cyanovirin-N, a lectin-like protein that binds to mannose moieties in gp120 and of mAb IgG1b12, with which it competes for the same binding site on CD4 receptor. Both of these virus-targeting entry-inhibitors have been reported to protect macaques from vaginal SHIV ...

[7] = biological target: recombinant human soluble CD4 (human); experiment: ELISA; competition: increasing HD5 against anti-CD4 mAb (Leu3a; OKT4) for binding to plastic-immobilised sCD4 (coated at 5 µg/mL); HD5 added before the mAb and kept in the wells
[8] = biological target: recombinant HIV-1 gp120 from isolate SF162 (HIV-1 isolate SF162); experiment: ELISA; competition: increasing HD5 against mAb IgG1b12 (5 µg/mL) for binding to plastic-immobilised recombinant gp120; PBS + 0.05% BSA, 1 hr at 37°C
[9] = biological target: recombinant HIV-1 gp120 from isolate BaL (HIV-1 isolate BaL); experiment: ELISA; competition: increasing HD5 against the binding of sCD4 and gp120; the text has gp120 on plastic and sCD4 in solution, the legend has sCD4 coated at 5 µg/mL and gp120BaL in solution; HD5 added first and kept in the wells

Molecule: CC[C@H](C)[C@@H]1NC(=O)[C@H](CCC(=O)O)NC(=O)[C@@H]2CSSC[C@@H]3NC(=O)[C@H](Cc4ccc(O)cc4)NC(=O)[C@@H](NC(=O)[C@@H](NC(=O)[C@H](C)N)[C@@H](C)O)CSSC[C@@H](C(=O)N[C@@H](CCCNC(=N)N)C(=O)O)NC(=O)[C@H](CSSC[C@H](NC(=O)[C@H](CCCNC(=N)N)NC(=O)CNC(=O)[C@H]([C@@H](C)O)NC(=O)[C@H](CCCNC(=N)N)NC3=O)C(=O)N[C@@H](C)C(=O)N[C@@H]([C@@H](C)O)C(=O)N[C@@H](CCCNC(=N)N)C(=O)N[C@@H](CCC(=O)O)C(=O)N[C@@H](CO)C(=O)N[C@@H](CC(C)C)C(=O)N[C@@H](CO)C(=O)NCC(=O)N[C@@H](C(C)C)C(=O)N2)NC(=O)[C@H](CC(C)C)NC(=O)[C@H](CCCNC(=N)N)NC(=O)[C@H](Cc2ccc(O)cc2)NC(=O)[C@H](CC(C)C)NC(=O)[C@H](CCCNC(=N)N)NC(=O)CNC(=O)[C@H](CO)NC1=O [HD5] (H-ATCYCRTGRCATRESLSGVCEISGRLYRLCCR-OH; disulfide 3-31, 5-20, 10-30)
- IC50 ([1]; primary isolate 1J176 in purified CD4+ T lymphocytes, 1 h): 0.06 µM
- IC50 ([1]; read-out: half-maximal inhibitory concentration (IC50), HIV-1 replication, HIV-1J176, no serum (RPMI-0.3-ITS: 0.3% human AB serum, ITS, rIL-2 50 U/ml), virions pre-incubated with HD5 1 h at 37°C, spinoculation 1.5 h, p24 ELISA day 6, mean of 3 experiments in triplicate): 0.4 µM
- IC50 ([2]; read-out: IC50, fusion with FBS, with FBS (2.5% vol/vol)): 56 µM
- IC50 ([2]; read-out: IC50, fusion without FBS, without FBS): 2.3 µM
- IC50 [3]: 2.77 ± 0.38 µM
- IC50 [4]: 0.9 µM
- IC50 [5]: 1.8 µM

Molecule: cyanovirin-N
- protection from vaginal SHIV-challenge [6]: protect macaques from vaginal SHIV-challenge

B1: human α-defensin-5 (peptide)
chain: ATCYCRTGRCATRESLSGVCEISGRLYRLCCR
- IC50 [7]: 1.8 µM
- IC50 [8]: 6.5 µM
- IC50 [9]: 0.9 µM
